Columns and labels:
[1] = system: HUVEC cells (human umbilical vessel endothelial cells); assay: NO (nitrite) production in HUVEC cells; format: cell-based; settings: 24 hours incubation
Description: HUVEC cells (human umbilical vessel endothelial cells) were obtained from umbilical vessels, a gift from the University Hospital of the University of São Paulo. Vessels were washed externally with ethanol 96%, and after a diagonal cut at the end of the vessel, a catheter was introduced into the vessel vein, and attached to a three way valve. The vein was washed with 20 ml sterile saline, and the other end of the vessel was tied. One milliliter of a collagenase type IV solution was introduced (0.2 mg/ml/cm of umbilical vessel). The vessel was transferred to a Petri dish (10 cm^2), and incubated for 15 minutes at 37° C. Cells contained inside the cord were removed by massage, and transferred to a sterile tube. Bovine fetal serum was added to a final concentration of 10%, and the suspension was centrifuged for 10 minutes at 3.000 g at 4° C., and the cell pellet was resuspended in 2 ml complete medium (40% Medium 199, 40% DMEM, 18% bovine fetal serum, 1% L-glutamine, 1% penicillin/streptomycin). The cell suspension was transferred to a bottle, previously treated with a 1% gelatin solution (30 min at 4° C.), and 5 mL complete medium was added. The bottle was incubated at 37° C. at 5% CO2 atmosphere. […]
Cells were grown in Petri dishes to 80% confluence. […] The concentration of nitrite, derived from NO, was measured in the extracellular and the intracellular media.

SK-N-AS cells = assay: NO (nitrite) production in SK-N-AS neuroblastoma cells; format: cell-based, human; settings: 24 hours incubation
Description: Human neurobalsotma cells (SK-N-AS, ATCC no. CRL-2137) were kept in DMEM, supplemented with 10% FBS (fetal bovine serum) and 1% non-essential amino acids, at 5% CO2 atmosphere, at 37° C., and 95% relative humidity. Cells were treated with trypsin, and replicated when an adequate cell concentration had been reached. The medium was exchanged after 12 hours, and later, every third day.
The method of Feelisch et al. (Feelisch et al., Concomitant S-, N-, and heme-nitros(yl)ation in biological tissues and fluids: implications for the fate of NO in vivo. FASEB J 16: 1775-1785, 2000) was employed to analyze NO production in the endothelial and neuronal cells described above.
Cells were grown in Petri dishes to 80% confluence. Peptide SEQ ID NO 8 was added in the concentration range of 0-8 μM to HUVEC cells, and 0-100 μM to SK-N-AS cells, and incubation continued for 24 hours. Subsequently, 1 ml of medium was retrieved (extracellular medium), and replaced by 1 ml 10 mM N-ethylmaleimide. Cells were washed in PBS, and lyzed in RIPA buffer (50 mM Tris pH 7.5, 150 mM NaCl, 1% Nonidet p-40 (NP-40) and 0.5% Na-desoxycholate, 0.1% SDS, 1 mM DTPA, and 10 mM N-ethylmaleimide). Lysats were collected and incubated on ice for 20 minutes and centrifuged. Supernatants were kept at −80° C. […] The concentration of nitrite, derived from NO, was measured in the extracellular and the intracellular media.

With <ENWPHPQIPP [SEQ ID NO 8] the “increase of NO generation” value [1] was “approximately 100%” and the “increase of NO generation” value (SK-N-AS cells) was “approximately 100%”.

— patent US20100035822A1, “PROLINE-RICH PEPTIDES, PHARMACEUTICAL COMPOSITION, USE OF ONE OR MORE PEPTIDES AND METHOD OF TREATMENT” (priority 2006, published 2010)
